Reference: PubChem BioAssay (NCI)
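Five compound concentrations were applied to cells in 96-well plates for 48 hours; endpoints were derived by simple linear interpolation of the resulting dose-response curve. Here, GI50 denotes the concentration required for 50% inhibition of growth. At the TGI there is no net growth.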

What was measured:
Test in all cases: NCI-60 cell line screen, 48 h
M14 melanoma = system: M14 melanoma
U251 CNS = system: U251 CNS
NCI/ADR-RES ovarian = system: NCI/ADR-RES ovarian
NCI-H23 lung = system: NCI-H23 lung
NCI-H226 lung = system: NCI-H226 lung
SNB-19 CNS = system: SNB-19 CNS
HT29 colon = system: HT29 colon
UACC-62 melanoma = system: UACC-62 melanoma
UO-31 renal = system: UO-31 renal
CAKI-1 renal = system: CAKI-1 renal
A498 renal = system: A498 renal
HCT-15 colon = system: HCT-15 colon
SK-MEL-5 melanoma = system: SK-MEL-5 melanoma
DU-145 prostate = system: DU-145 prostate
HCC-2998 colon = system: HCC-2998 colon
OVCAR-8 ovarian = system: OVCAR-8 ovarian
SF-295 CNS = system: SF-295 CNS
MOLT-4 leukemia = system: MOLT-4 leukemia
HOP-92 NSCLC = system: HOP-92 NSCLC
KM12 colon = system: KM12 colon
A549 NSCLC = system: A549 NSCLC
SF-268 CNS = system: SF-268 CNS
HCT-116 colon = system: HCT-116 colon
MALME-3M melanoma = system: MALME-3M melanoma
HL-60(TB) leukemia = system: HL-60(TB) leukemia
MDA-MB-435 = system: MDA-MB-435
PC-3 prostate = system: PC-3 prostate
SW-620 colon = system: SW-620 colon
OVCAR-3 ovarian = system: OVCAR-3 ovarian
SK-OV-3 ovarian = system: SK-OV-3 ovarian
OVCAR-5 ovarian = system: OVCAR-5 ovarian
K-562 leukemia = system: K-562 leukemia
ACHN renal = system: ACHN renal
OVCAR-4 ovarian = system: OVCAR-4 ovarian
RXF 393 renal = system: RXF 393 renal
SK-MEL-28 melanoma = system: SK-MEL-28 melanoma
SR leukemia = system: SR leukemia
RPMI-8226 leukemia = system: RPMI-8226 leukemia
MDA-MB-231 breast = system: MDA-MB-231 breast
UACC-257 melanoma = system: UACC-257 melanoma
NCI-H522 lung = system: NCI-H522 lung
HOP-62 NSCLC = system: HOP-62 NSCLC
HS 578T breast = system: HS 578T breast
CCRF-CEM leukemia = system: CCRF-CEM leukemia
SK-MEL-2 melanoma = system: SK-MEL-2 melanoma
BT-549 breast = system: BT-549 breast
SF-539 CNS = system: SF-539 CNS
COLO 205 colon = system: COLO 205 colon
TK-10 renal = system: TK-10 renal
SN12C renal = system: SN12C renal
IGROV1 ovarian = system: IGROV1 ovarian
SNB-75 CNS = system: SNB-75 CNS
786-0 renal = system: 786-0 renal
NCI-H460 lung = system: NCI-H460 lung
T-47D breast = system: T-47D breast
LOX IMVI melanoma = system: LOX IMVI melanoma

Compound: Cc1nn(-c2ccccc2)c2nc3c(nc12)C1=NCCN1C(c1ccc(Cl)cc1)N3 (configuration not stated)
- GI50 (M14 melanoma): 1.98 µM
- TGI (M14 melanoma): 3.86 µM
- GI50 (U251 CNS): 2.21 µM
- TGI (U251 CNS): 5.98 µM
- GI50 (NCI/ADR-RES ovarian): 13.4 µM
- TGI (NCI/ADR-RES ovarian): 32 µM
- GI50 (NCI-H23 lung): 15.3 µM
- TGI (NCI-H23 lung): 31.6 µM
- GI50 (NCI-H226 lung): 5.04 µM
- TGI (NCI-H226 lung): 14.4 µM
- GI50 (SNB-19 CNS): 9.91 µM
- TGI (SNB-19 CNS): 26.9 µM
- GI50 (HT29 colon): 2.5 µM
- TGI (HT29 colon): 5.96 µM
- GI50 (UACC-62 melanoma): 1.95 µM
- TGI (UACC-62 melanoma): 3.8 µM
- GI50 (UO-31 renal): 7.84 µM
- TGI (UO-31 renal): 21.5 µM
- GI50 (CAKI-1 renal): 13.2 µM
- TGI (CAKI-1 renal): 27.3 µM
- GI50 (A498 renal): 4.01 µM
- TGI (A498 renal): 17.9 µM
- GI50 (HCT-15 colon): 2.89 µM
- TGI (HCT-15 colon): 9.75 µM
- GI50 (SK-MEL-5 melanoma): 1.57 µM
- TGI (SK-MEL-5 melanoma): 3.12 µM
- GI50 (DU-145 prostate): 5.9 µM
- TGI (DU-145 prostate): 17.9 µM
- GI50 (HCC-2998 colon): 1.92 µM
- TGI (HCC-2998 colon): 3.49 µM
- GI50 (OVCAR-8 ovarian): 6.29 µM
- TGI (OVCAR-8 ovarian): 21 µM
- GI50 (SF-295 CNS): 2.56 µM
- TGI (SF-295 CNS): 8.24 µM
- GI50 (MOLT-4 leukemia): 2.38 µM
- TGI (MOLT-4 leukemia): 6.01 µM
- GI50 (HOP-92 NSCLC): 2 µM
- TGI (HOP-92 NSCLC): 9.69 µM
- GI50 (KM12 colon): 3.62 µM
- TGI (KM12 colon): 12.2 µM
- GI50 (A549 NSCLC): 4.63 µM
- TGI (A549 NSCLC): 17.7 µM
- GI50 (SF-268 CNS): 5.61 µM
- TGI (SF-268 CNS): 17.6 µM
- GI50 (HCT-116 colon): 2.16 µM
- TGI (HCT-116 colon): 4.86 µM
- GI50 (MALME-3M melanoma): 2.18 µM
- TGI (MALME-3M melanoma): 4.12 µM
- GI50 (HL-60(TB) leukemia): 1.87 µM
- TGI (HL-60(TB) leukemia): 4.4 µM
- GI50 (MDA-MB-435): 1.85 µM
- TGI (MDA-MB-435): 3.74 µM
- GI50 (PC-3 prostate): 4.33 µM
- TGI (PC-3 prostate): 18.3 µM
- GI50 (SW-620 colon): 1.9 µM
- TGI (SW-620 colon): 3.96 µM
- GI50 (OVCAR-3 ovarian): 2.63 µM
- TGI (OVCAR-3 ovarian): 7.18 µM
- GI50 (SK-OV-3 ovarian): 7.9 µM
- TGI (SK-OV-3 ovarian): 19.4 µM
- GI50 (OVCAR-5 ovarian): 11.4 µM
- TGI (OVCAR-5 ovarian): 24.3 µM
- GI50 (K-562 leukemia): 2.42 µM
- TGI (K-562 leukemia): 6.19 µM
- GI50 (ACHN renal): 3.62 µM
- TGI (ACHN renal): 13.2 µM
- GI50 (OVCAR-4 ovarian): 7.1 µM
- TGI (OVCAR-4 ovarian): 20.9 µM
- GI50 (RXF 393 renal): 1.56 µM
- TGI (RXF 393 renal): 3.07 µM
- GI50 (SK-MEL-28 melanoma): 1.78 µM
- TGI (SK-MEL-28 melanoma): 3.37 µM
- GI50 (SR leukemia): 2.48 µM
- TGI (SR leukemia): 6.32 µM
- GI50 (RPMI-8226 leukemia): 2.22 µM
- TGI (RPMI-8226 leukemia): 5.28 µM
- GI50 (MDA-MB-231 breast): 1.81 µM
- TGI (MDA-MB-231 breast): 4.95 µM
- GI50 (UACC-257 melanoma): 1.79 µM
- TGI (UACC-257 melanoma): 3.49 µM
- GI50 (NCI-H522 lung): 2.83 µM
- TGI (NCI-H522 lung): 7.14 µM
- GI50 (HOP-62 NSCLC): 3.26 µM
- TGI (HOP-62 NSCLC): 8.31 µM
- GI50 (HS 578T breast): 3.1 µM
- TGI (HS 578T breast): 12.8 µM
- GI50 (CCRF-CEM leukemia): 2.69 µM
- TGI (CCRF-CEM leukemia): 7.85 µM
- GI50 (SK-MEL-2 melanoma): 2.3 µM
- TGI (SK-MEL-2 melanoma): 4.46 µM
- GI50 (BT-549 breast): 12.6 µM
- TGI (BT-549 breast): 27.1 µM
- GI50 (SF-539 CNS): 1.94 µM
- TGI (SF-539 CNS): 4.23 µM
- GI50 (COLO 205 colon): 1.84 µM
- TGI (COLO 205 colon): 3.36 µM
- GI50 (TK-10 renal): 2.93 µM
- TGI (TK-10 renal): 7.18 µM
- GI50 (SN12C renal): 11.4 µM
- TGI (SN12C renal): 25.2 µM
- GI50 (IGROV1 ovarian): 11.7 µM
- TGI (IGROV1 ovarian): 27.4 µM
- GI50 (SNB-75 CNS): 1.62 µM
- TGI (SNB-75 CNS): 6.25 µM
- GI50 (786-0 renal): 2.99 µM
- TGI (786-0 renal): 8.9 µM
- GI50 (NCI-H460 lung): 2.19 µM
- TGI (NCI-H460 lung): 5.03 µM
- GI50 (T-47D breast): 1.74 µM
- TGI (T-47D breast): 3.42 µM
- GI50 (LOX IMVI melanoma): 1.94 µM
- TGI (LOX IMVI melanoma): 3.91 µM
